From US20220280579A1, “Formulations for Prevention or Reduction of C. Difficile Infections” (priority 2019, published 2022)
“And” between values parts separate entries of the source, which are not always exact repeats. Identical values can stand only once.

Tested on: CD strain 630
Experiment: Example 7: Holloway model of CDI, GlcNAc or glucosamine in drinking water
Conditions: for Ethanol resistant CFU, CFU/g faeces: individual mice

CC(=O)N[C@H]1C(O)O[C@H](CO)[C@@H](O)[C@@H]1O (stereo partly shown) [GlcNAc, N-acetyl-glucosamine] was tested, and the CD colonisation (mouse, in vivo) was “could suppress CD colonisation” and the “CD infections (CDI) in mice” value (mouse, in vivo) was “prevented CD infections”.
Cl.N[C@H]1C(O)O[C@H](CO)[C@@H](O)[C@@H]1O (stereo partly shown) [Glucosamine, Glucosamine hydrochloride] was tested, and the “Water consumption: Daily consumption per mouse” value (“Water consumption … per mouse” below) (20 mg/ml in drinking water) was 4.2 mL, the “Ethanol resistant CFU, CFU/g faeces” value (20 mg/ml in drinking water, hydrochloride) was 0.00E+00 CFU/g faeces (5×) and 1.90E+06 CFU/g faeces and the “Water consumption … per mouse” value (50 mg/ml in drinking water) was 2.8 mL. The “Ethanol resistant CFU, CFU/g faeces” value (50 mg/ml in drinking water) was 0.00E+00 CFU/g faeces, the “Water consumption … per mouse” value (100 mg/ml in drinking water) was 1 mL and the “Ethanol resistant CFU, CFU/g faeces” value (100 mg/ml in drinking water, hydrochloride) was 0.00E+00 CFU/g faeces (4×) and 1.70E+05 CFU/g faeces and 8.00E+04 CFU/g faeces. The CD colonisation (levels as low as 20 mg/ml in drinking water, summary in words) was “could suppress CD colonisation” and the “CD infections (CDI) in mice” value (water containing 20 mg/ml, conclusion in words) was “prevented CD infections”.
